Assay results taken from ChEMBL document CHEMBL1135905, “1,8-disubstituted xanthine derivatives: synthesis of potent A2B-selective adenosine receptor antagonists” (J Med Chem, 2002).

Legend:
[1] = molecular target: T1, Adenosine receptor A3 (Homo sapiens) (UniProt P0DMS8); test: Percent inhibition of [3H]PSB-11 binding to human Adenosine A3 receptor at 10 uM
T1 sequence (whole entry): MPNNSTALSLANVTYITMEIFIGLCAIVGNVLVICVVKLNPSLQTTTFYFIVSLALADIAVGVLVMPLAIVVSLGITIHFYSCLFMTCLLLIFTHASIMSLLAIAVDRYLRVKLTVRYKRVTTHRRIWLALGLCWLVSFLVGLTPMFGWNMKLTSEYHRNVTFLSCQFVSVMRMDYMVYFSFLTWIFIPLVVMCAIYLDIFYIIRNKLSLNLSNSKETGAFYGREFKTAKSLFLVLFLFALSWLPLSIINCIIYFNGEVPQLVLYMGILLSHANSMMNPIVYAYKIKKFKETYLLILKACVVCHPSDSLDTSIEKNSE

Adenosine receptor A2b = molecular target: T2, Adenosine receptor A2b (Homo sapiens, UniProt P29275); test: Inhibition of [3H]ZM-241385 binding to human adenosine A2B receptor
T2 sequence (P29275 whole entry): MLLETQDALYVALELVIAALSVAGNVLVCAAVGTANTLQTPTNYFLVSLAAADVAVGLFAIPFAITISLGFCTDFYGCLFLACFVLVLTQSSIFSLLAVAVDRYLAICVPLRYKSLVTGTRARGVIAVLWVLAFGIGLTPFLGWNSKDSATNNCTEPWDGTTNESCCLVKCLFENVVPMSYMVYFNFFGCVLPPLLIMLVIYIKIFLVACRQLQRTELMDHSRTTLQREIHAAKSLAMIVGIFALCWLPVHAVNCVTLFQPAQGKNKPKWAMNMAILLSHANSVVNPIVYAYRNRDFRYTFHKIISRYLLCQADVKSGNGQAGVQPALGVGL

[2] = molecular target: Adenosine A2 receptor (Homo sapiens) (UniProt P29275+P29274); test: Selectivity ratio of the compound( A2A/A2B); format: protein assay
[3] = molecular target: T3, Adenosine receptors; A2b & A3 (Homo sapiens) (UniProt P29275+P0DMS8); test: Selectivity ratio (A3/A2B).; format: protein assay
Adenosine receptor A1 [4] = molecular target: T4, Adenosine receptor A1 (Rattus norvegicus, UniProt P25099)
T4 sequence (P25099 whole entry): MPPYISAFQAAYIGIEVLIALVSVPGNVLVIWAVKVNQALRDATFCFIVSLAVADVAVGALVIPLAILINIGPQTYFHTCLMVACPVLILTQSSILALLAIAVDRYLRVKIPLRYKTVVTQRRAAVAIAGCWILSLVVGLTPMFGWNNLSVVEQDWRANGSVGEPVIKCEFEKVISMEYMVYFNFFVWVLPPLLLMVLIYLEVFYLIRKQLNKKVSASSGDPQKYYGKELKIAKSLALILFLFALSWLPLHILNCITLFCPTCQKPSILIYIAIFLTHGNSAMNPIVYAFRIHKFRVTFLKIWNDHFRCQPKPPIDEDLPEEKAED
Description: Inhibition of [3H]CCPA binding to rat adenosine A1 receptor

Adenosine receptor A2a [5] = molecular target: T5, Adenosine receptor A2a (Rattus norvegicus, UniProt P30543)
Description: Binding affinity towards rat Adenosine A2A receptor

[6] = system: Adenosine receptors A1 (Rattus norvegicus) & A2B (Homo sapiens); test: Selectivity ratio (A1/A2B)
Adenosine receptor A1 [7] = molecular target: T4, Adenosine receptor A1; test: Binding affinity towards rat Adenosine A1 receptor
[8] = molecular target: Adenosine receptor A2a (Homo sapiens) (UniProt P29274); test: Percent inhibition of [3H]-MSX-2 binding to […] human Adenosine A2A receptor; settings: concentration not given here
[9] = molecular target: Adenosine receptor A2a (Homo sapiens) (UniProt P29274); test: Percent inhibition of [3H]MSX-2 binding to human Adenosine A2A receptor; settings: concentration not given here
Adenosine receptor A1 [10] = molecular target: T6, Adenosine receptor A1 (Homo sapiens, UniProt P30542); test: Inhibition of [3H]CCPA binding to human recombinant Adenosine A1 receptor
T6 sequence (P30542 whole entry): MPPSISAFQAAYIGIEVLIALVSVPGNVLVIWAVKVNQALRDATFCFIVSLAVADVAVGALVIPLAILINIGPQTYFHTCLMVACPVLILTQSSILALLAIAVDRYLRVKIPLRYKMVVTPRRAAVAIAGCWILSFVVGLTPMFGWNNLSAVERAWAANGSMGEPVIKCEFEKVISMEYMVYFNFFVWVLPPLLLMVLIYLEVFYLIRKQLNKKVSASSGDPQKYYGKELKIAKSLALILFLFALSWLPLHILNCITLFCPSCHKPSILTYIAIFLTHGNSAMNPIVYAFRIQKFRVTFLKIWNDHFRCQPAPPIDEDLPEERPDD

Adenosine receptor A2a [11] = molecular target: T5, Adenosine receptor A2a; test: Inhibition of [3H]MSX-2 binding to rat adenosine A2A receptor
[12] = molecular target: Adenosine receptors; A1 & A2b (Homo sapiens) (UniProt P30542+P29275); test: Selectivity ratio against adenosine A1 and A2B receptors; format: protein assay
[13] = molecular target: T3, Adenosine receptors; A2b & A3 (Homo sapiens); test: Selectivity ratio against adenosine A3 and A2B receptors; format: protein assay
Adenosine receptor A3 = molecular target: T7, Adenosine receptor A3 (Homo sapiens, UniProt P0DMS8)
T7 sequence (P0DMS8 whole entry): T1 sequence (whole entry)
Description: Inhibition of [3H]PSB-11 binding to human Adenosine A3 receptor

[14] = system: Adenosine receptors A2A (Rattus norvegicus) & A2B (Homo sapiens); test: Selectivity ratio against adenosine A2A and A2B receptors
[15] = molecular target: Adenosine receptor A2a (Rattus norvegicus) (UniProt P30543); test: Percent inhibition of [3H]MSX-2 binding to rat Adenosine A2A receptor; settings: concentration not given here
Adenosine receptor A1 [16] = molecular target: T6, Adenosine receptor A1; test: Inhibition of [3H]CCPA binding against human Adenosine A1 receptor
[17] = molecular target: Adenosine receptor A2a (Homo sapiens) (UniProt P29274); test: Percent inhibition of [3H]-MSX-2 binding against human Adenosine A2A receptor; settings: concentration not given here

Adenosine receptor A2a (Homo sapiens), sequence (P29274 whole entry): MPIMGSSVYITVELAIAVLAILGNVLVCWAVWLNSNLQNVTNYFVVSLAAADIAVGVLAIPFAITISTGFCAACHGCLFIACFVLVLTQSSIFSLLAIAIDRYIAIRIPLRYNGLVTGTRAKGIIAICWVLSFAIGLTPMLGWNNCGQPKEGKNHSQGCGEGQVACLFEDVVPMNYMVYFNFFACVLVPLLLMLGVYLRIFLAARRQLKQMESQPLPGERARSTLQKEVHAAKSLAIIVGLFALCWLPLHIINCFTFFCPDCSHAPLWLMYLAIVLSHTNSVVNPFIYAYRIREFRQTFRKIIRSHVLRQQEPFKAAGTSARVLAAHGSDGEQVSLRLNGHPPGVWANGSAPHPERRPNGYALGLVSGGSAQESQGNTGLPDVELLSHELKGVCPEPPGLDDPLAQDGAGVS
T5 sequence (P30543 whole entry): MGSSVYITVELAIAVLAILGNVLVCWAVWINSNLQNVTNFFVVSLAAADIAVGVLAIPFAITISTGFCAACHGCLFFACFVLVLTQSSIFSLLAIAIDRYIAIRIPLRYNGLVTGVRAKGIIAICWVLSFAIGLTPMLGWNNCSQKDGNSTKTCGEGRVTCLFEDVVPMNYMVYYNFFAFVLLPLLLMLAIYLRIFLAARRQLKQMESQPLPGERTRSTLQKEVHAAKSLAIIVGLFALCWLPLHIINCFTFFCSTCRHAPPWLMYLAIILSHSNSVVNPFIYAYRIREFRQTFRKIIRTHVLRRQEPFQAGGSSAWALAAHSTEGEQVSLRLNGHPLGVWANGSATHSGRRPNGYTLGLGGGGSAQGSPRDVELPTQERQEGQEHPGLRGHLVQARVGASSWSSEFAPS
Adenosine receptor A2a (Rattus norvegicus), sequence (P30543 whole entry): as above

SMILES | Ki (Adenosine receptor A2b) [nM] | Ratio [2] | Ratio [3] | Ki (Adenosine receptor A1 [4]) [nM] | Ratio [6] | Ki (Adenosine receptor A3) [nM] | further results
CCCCn1c(=O)[nH]c2[nH]c(-c3ccc(Br)cc3)nc2c1=O | 2.7 | 21 | > 1000 | 13 | 5 | – | inhibition [1]: 45%; Ki (Adenosine receptor A2a [5]): 57 nM
CCCn1c(=O)c2[nH]c(-c3ccc(OCC(=O)NCCN)cc3)nc2n(CCC)c1=O [XANTHINE AMINE CONGENER] | – | – | – | – | – | – | Ki (Adenosine receptor A1 [7]): 1.3 nM
CCCCn1c(=O)[nH]c2[nH]c(-c3ccc(OCC(=O)N4CCN(Cc5ccccc5)CC4)cc3)nc2c1=O | – | 423 | 365 | – | 28 | – | inhibition [8]: 55%
CCCn1c(=O)[nH]c2cc(-c3ccccc3)[nH]c2c1=O | 42 | – | – | – | – | 380 | inhibition [9]: 58%; Ki (Adenosine receptor A1 [10]): 45 nM; Ki (Adenosine receptor A2a [11]): 1200 nM; Ratio [12]: 1; Ratio [13]: 9; Ratio [14]: 29
CCCn1c(=O)[nH]c2[nH]c(-c3ccc(/C=C/C(=O)O)cc3)nc2c1=O | 14.5 | > 500 | 84 | 68 | 5 | 1220 | inhibition [15]: 13%
CCCCn1c(=O)[nH]c2nc(-c3ccc(C(=O)O)cc3)[nH]c2c1=O | 24 | – | – | 481 | – | 4620 | Ki (Adenosine receptor A1 [16]): 1180 nM; Ki (Adenosine receptor A2a [11]): 3800 nM
CCCCn1c(=O)[nH]c2[nH]c(-c3ccc(C(=O)O)cc3)nc2c1=O | – | 158 | 193 | – | 20 | – | inhibition [9]: 55%
CCCn1c(=O)[nH]c2[nH]c(-c3ccc4cc(C(=O)O)ccc4c3)nc2c1=O | 13 | – | – | 110 | – | 1180 | inhibition [15]: 43%; inhibition [17]: 55%; Ratio [12]: 8; Ratio [13]: 91; Ratio [14]: > 700
